# Where a name gives a salt, the structure may show the parent alone.
# Legend:
# Phase IIa clinical trial = format: in vivo, human
# Text: When the heart pumps blood into the vascular system, the ability of the arteries to expand helps to push blood through the body. When arteries become stiff, as they do in the natural process of aging, the ability of the arteries to expand is diminished and also has consequences for the heart. The heart has to work harder to pump the blood into the stiff arteries, and eventually hypertrophies (enlarges in size) to accomplish this. A hypertrophied heart is an inefficient pump, and is one of the disorders that leads to congestive heart failure. […] The potential clinical benefit of this is to lessen the effort that the heart must expend to push blood throughout the body. The effect is also believed to contribute to preventing hypertrophy and subsequent inefficiency of the heart, which inefficiency would contribute to congestive heart failure.
# Atherosclerosis is a disease that involves deposition of blood lipids in plaque in the arteries throughout the body. In coronary arteries, accumulation of plaque progressively leads to reduced coronary flow, with occlusion of the arteries causing focal death of cardiac tissue (myocardial infarction, heart attack). If the amount of tissue that dies is large enough, death ensures. […] Reducing local deposits of plaque should eventually lessen the risk of myocardial infarction and death due to heart attacks.
# Pulse pressure is the difference between systolic and diastolic blood pressure. In a young human, systolic pressure is typically 120 mm Hg and diastolic pressure is 80 mm Hg, resulting in a pulse pressure of 40 mm Hg. With age, in many individuals pulse pressure increases, largely due to the increase in systolic pressure that results from stiff vessel disease. In individuals with pulse pressure greater than 60 mm Hg there is an increased risk of death from cardiovascular morbidities.
# [1] = In vivo studies of vascular stiffening in rodents, canines and primates
# Text: (§1) Cardiovascular risk correlates more closely with the systolic and the pulse pressure than with the diastolic pressure. In diabetic patients, the cardiovascular risk profile of diabetic patients is strongly correlated to duration of diabetes, glycemic control and blood pressure. Structural matrix proteins contribute to the function of vessels and the heart, and changes in the physical behavior of cardiovascular walls are believed to be important determinants of circulatory function. In elderly individuals, the loss of compliance in the aorta leads to isolated systolic hypertension, which in turn expands the arterial wall and thereby diminishes the dynamic range of elasticity. Loss of compliance also results in the development of left ventricular hypertrophy.
# [2] = Dog model for diabetes, ventricular elasticity; format: in vivo
# Text: as §1
# [3] = tested on: collagen in cardiovascular tissues; assay: Mass of collagen in cardiovascular tissues after treatment; format: in vivo
# Text: as §1
# Type IV collagen = assay: In situ hybridization studies, Type IV collagen; format: in vivo
# Text: as §1
# TGFbeta = assay: In situ hybridization studies, TGFbeta; format: in vivo
# Text: as §1
smiles,measurement,setting,value
"Cc1sc[n+](CC(=O)c2ccccc2)c1C [3-[2-phenyl-2-oxoethyl]-4,5-dimethyl-thiazolium salt]","stiffness of arteries, as measured by the ratio of stroke volume (ml) to pulse pressure (mm Hg)",Phase IIa clinical trial; Phase IIa clinical trial,showed an ability to reverse the stiffness of arteries
same,amount of circulating triglycerides (lipids),Phase IIa clinical trial; Phase IIa trial,increased the amount of circulating triglycerides
same,systolic blood pressure,"Phase IIa clinical trial; Phase IIa trial, believed to be the primary cause of the pulse pressure decrease",lowering the systolic blood pressure
same,pulse pressure,"Phase IIa clinical trial; Phase IIa trial, elderly patients with pulse pressures greater than 60 mm Hg",reduced pulse pressure in elderly patients with pulse pressures greater than 60 mm Hg in a statistically significant manner
same,vascular stiffening,[1],substantially ameliorating vascular stiffening
same,end diastolic pressure (indicator of ventricular elasticity),[2],returned to a value at about the mid-point between the disease impaired value and the value for control dogs
same,end diastolic volume (indicator of ventricular elasticity),[2],returned to a value at about the mid-point between the disease impaired value and the value for control dogs
same,mass of collagen in cardiovascular tissues,[3],reduction in the mass of collagen in cardiovascular tissues
same,expression of Type IV collagen,Type IV collagen,reduces the expression of both Type IV collagen and TGFbeta
same,expression of TGFbeta,TGFbeta,reduces the expression of both Type IV collagen and TGFbeta
